# From paper PMC11345841, “Exploring 2-Sulfonylpyrimidine Warheads as Acrylamide Surrogates for Targeted Covalent Inhibition: A BTK Story” (Journal of Medicinal Chemistry, 2024)
# Where two headings read alike, the source gives them in different places.
# What was measured:
# BLK = molecular target: T1, BLK (Homo sapiens, UniProt P51451); assay: KINOMEscan ScanTK; format: binding; details: BLK
# T1 construct: purchased Eurofins DiscoverX KINOMEscan (scanTK)
# EPHA7 = molecular target: T2, EPHA7 (Homo sapiens, UniProt Q15375); assay: KINOMEscan ScanTK; format: binding
# T2 construct: purchased Eurofins DiscoverX KINOMEscan (scanTK)
# T2 sequence (Q15375 28-998): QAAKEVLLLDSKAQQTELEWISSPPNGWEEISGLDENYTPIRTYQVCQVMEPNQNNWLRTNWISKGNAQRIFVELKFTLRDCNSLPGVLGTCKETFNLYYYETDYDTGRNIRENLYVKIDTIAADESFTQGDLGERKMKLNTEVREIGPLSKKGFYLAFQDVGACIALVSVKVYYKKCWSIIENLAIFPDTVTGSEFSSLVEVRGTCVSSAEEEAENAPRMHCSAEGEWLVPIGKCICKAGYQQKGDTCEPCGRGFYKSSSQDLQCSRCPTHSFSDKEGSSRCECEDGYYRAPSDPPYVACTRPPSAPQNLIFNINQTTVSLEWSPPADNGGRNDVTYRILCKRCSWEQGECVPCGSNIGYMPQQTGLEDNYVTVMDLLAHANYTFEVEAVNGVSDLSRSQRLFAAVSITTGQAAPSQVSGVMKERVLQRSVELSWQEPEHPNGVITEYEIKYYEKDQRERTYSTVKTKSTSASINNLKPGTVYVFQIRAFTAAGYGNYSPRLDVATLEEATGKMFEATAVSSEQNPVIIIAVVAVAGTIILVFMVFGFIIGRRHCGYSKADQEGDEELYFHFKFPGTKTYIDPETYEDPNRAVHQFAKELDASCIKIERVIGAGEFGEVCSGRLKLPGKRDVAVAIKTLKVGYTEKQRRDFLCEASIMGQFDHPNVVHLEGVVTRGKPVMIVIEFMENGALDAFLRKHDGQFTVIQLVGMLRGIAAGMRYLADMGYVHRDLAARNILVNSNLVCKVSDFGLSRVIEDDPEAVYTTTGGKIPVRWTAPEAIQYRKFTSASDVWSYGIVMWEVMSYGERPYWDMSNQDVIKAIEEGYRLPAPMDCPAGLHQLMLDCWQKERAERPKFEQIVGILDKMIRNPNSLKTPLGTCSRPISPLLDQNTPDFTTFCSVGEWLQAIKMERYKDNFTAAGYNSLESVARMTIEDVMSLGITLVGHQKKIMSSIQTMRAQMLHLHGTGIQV
# FLT3(ITD,F691L) = assay: KINOMEscan ScanTK; format: binding
# FLT3(N841I) = molecular target: T3, FLT3(N841I) (Homo sapiens, UniProt P36888, N841I); assay: KINOMEscan ScanTK; format: binding
# T3 construct: purchased Eurofins DiscoverX KINOMEscan (scanTK)
# T3 sequence (P36888 27-993 N841I): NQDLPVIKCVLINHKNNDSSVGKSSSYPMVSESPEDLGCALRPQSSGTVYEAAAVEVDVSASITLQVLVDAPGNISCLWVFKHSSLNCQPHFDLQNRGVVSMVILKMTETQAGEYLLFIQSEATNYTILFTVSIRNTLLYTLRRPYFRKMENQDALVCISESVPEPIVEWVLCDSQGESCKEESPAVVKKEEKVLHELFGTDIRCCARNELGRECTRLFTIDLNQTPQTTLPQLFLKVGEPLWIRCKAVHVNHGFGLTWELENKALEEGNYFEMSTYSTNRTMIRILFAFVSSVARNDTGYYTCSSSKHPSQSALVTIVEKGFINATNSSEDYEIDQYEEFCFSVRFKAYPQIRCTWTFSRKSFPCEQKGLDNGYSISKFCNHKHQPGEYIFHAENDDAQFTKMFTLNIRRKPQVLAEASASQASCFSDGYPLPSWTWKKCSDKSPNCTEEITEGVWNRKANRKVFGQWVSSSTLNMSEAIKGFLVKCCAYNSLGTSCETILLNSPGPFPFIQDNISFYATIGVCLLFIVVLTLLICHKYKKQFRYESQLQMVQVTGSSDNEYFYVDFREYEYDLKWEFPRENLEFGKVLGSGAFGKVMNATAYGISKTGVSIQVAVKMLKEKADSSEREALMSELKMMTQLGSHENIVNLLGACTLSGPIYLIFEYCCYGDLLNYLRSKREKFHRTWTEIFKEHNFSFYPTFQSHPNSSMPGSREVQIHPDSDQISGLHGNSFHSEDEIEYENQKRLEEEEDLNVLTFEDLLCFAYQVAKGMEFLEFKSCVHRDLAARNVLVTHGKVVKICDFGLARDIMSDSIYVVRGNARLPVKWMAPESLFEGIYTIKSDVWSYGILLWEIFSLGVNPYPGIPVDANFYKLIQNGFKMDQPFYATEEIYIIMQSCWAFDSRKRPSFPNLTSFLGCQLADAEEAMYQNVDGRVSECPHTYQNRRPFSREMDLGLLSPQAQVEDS
# [1] = molecular target: T4, TYK2(JH1domain-catalytic) (Homo sapiens, UniProt P29597); assay: KINOMEscan ScanTK; format: binding
# T4 construct: TYK2(JH1domain-catalytic); purchased Eurofins DiscoverX KINOMEscan (scanTK)
# T4 sequence (P29597 888-1187 limits assumed): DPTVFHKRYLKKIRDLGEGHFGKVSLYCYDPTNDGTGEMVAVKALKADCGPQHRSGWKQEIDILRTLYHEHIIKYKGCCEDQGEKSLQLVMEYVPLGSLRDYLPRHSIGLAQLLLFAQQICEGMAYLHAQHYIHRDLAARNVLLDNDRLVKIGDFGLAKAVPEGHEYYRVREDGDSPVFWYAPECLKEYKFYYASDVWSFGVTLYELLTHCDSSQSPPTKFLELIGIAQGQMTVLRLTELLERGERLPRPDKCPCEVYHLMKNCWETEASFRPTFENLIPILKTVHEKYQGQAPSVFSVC
# TMD8 cells = assay: RNA-seq gene expression; details: for Expr Log Ratio: 8d versus Ibrutinib
# T1 sequence (P51451 whole entry): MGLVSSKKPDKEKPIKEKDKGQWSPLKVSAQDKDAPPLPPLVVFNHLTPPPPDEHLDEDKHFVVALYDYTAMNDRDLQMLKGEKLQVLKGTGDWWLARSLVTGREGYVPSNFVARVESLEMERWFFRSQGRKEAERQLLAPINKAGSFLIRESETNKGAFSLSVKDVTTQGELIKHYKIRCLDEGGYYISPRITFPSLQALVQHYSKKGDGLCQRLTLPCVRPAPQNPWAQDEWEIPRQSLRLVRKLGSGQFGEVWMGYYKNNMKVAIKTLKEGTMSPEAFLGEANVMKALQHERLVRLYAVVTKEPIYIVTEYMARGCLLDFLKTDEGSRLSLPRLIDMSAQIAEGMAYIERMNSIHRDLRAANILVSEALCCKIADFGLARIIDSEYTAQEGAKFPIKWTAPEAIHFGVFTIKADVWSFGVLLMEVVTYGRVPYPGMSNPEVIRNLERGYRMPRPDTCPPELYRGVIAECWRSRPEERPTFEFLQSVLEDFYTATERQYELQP
structure (smiles),measurement,setting,value
"CNC(=O)c1cnc(S(C)(=O)=O)nc1N1CCCC(n2nc(-c3ccc(Oc4ccccc4)cc3)c3c(N)ncnc32)C1 (stereo not shown) [Compound 8d, 4-(3-(4-Amino-3-(4-phenoxyphenyl)-1H-pyrazolo[3,4-d]pyrimidin-1-yl)piperidin-1-yl)-N-methyl-2-(methylsulfonyl)pyrimidine-5-carboxamide]",difference in %Control vs reference Ib at 1 µM,"BLK; @1000nM, read-out: % difference (compound - Ib %Control)",-0.05%
same,remaining binding at 1 µM,"BLK; @1000nM, read-out: %Control",0%
same,remaining binding at 1 µM,BLK; read-out: %Control @1000nM,0%
same,difference in %Control versus compound Ib at 1 µM,EPHA7; @1000nM,4%
same,remaining binding at 1 µM,"EPHA7; @1000nM, read-out: %Control",99%
same,remaining binding at 1 µM,EPHA7; read-out: %Control @1000nM,99%
same,%Control @1000nM,"FLT3(ITD,F691L)",100%
same,% difference (compound - Ib %Control),"FLT3(ITD,F691L); @1000nM",0%
same,%Control,"FLT3(ITD,F691L); @1000nM",100%
same,difference in %Control versus compound Ib at 1 µM,FLT3(N841I); @1000nM,37%
same,remaining binding at 1 µM,"FLT3(N841I); @1000nM, read-out: %Control",56%
same,remaining binding at 1 µM,FLT3(N841I); read-out: %Control @1000nM,56%
same,remaining binding at 1 µM,"[1]; @1000nM, read-out: %Control",100%
same,remaining binding at 1 µM,[1]; read-out: %Control @1000nM,100%
same,Expr Log Ratio,TMD8 cells; ACTN4,0.022
same,Expr Log Ratio,TMD8 cells; ACVR1C,-0.029
same,Expr Log Ratio,TMD8 cells; APC,0.064
same,Expr Log Ratio,TMD8 cells; APOC1,-0.164
same,Expr Log Ratio,TMD8 cells; ARHGAP31,0.01
same,Expr Log Ratio,TMD8 cells; ARNT2,0.044
same,Expr Log Ratio,TMD8 cells; AURKA,-0.004
same,Expr Log Ratio,TMD8 cells; BLOC1S5,-0.004
same,Expr Log Ratio,TMD8 cells; BMPR2,0.081
same,Expr Log Ratio,TMD8 cells; BRCA1,0.248
same,Expr Log Ratio,TMD8 cells; BRD7,0.035
same,Expr Log Ratio,TMD8 cells; BTRC,0.281
same,Expr Log Ratio,TMD8 cells; CD80,-0.429
same,Expr Log Ratio,TMD8 cells; CDKN1A,-0.127
same,Expr Log Ratio,TMD8 cells; COL1A1,-0.248
same,Expr Log Ratio,TMD8 cells; CREBZF,-0.251
same,Expr Log Ratio,TMD8 cells; CREM,-0.036
same,Expr Log Ratio,TMD8 cells; CTR9,0.099
same,Expr Log Ratio,TMD8 cells; CYB561A3,-0.04
same,Expr Log Ratio,TMD8 cells; DEF6,0.017
same,Expr Log Ratio,TMD8 cells; DNM1L,0.002
same,Expr Log Ratio,TMD8 cells; DTNBP1,0.278
same,Expr Log Ratio,TMD8 cells; DTX1,-0.178
same,Expr Log Ratio,TMD8 cells; ECM1,0.54
same,Expr Log Ratio,TMD8 cells; EHD1,-0.044
same,Expr Log Ratio,TMD8 cells; EIF2AK4,0.093
same,Expr Log Ratio,TMD8 cells; EIF2B5,-0.104
same,Expr Log Ratio,TMD8 cells; ELAVL1,-0.071
same,Expr Log Ratio,TMD8 cells; ESR1,-0.045
same,Expr Log Ratio,TMD8 cells; ETS1,0.064
same,Expr Log Ratio,TMD8 cells; FECH,0.061
same,Expr Log Ratio,TMD8 cells; FGF2,0.272
same,Expr Log Ratio,TMD8 cells; FGFR4,-0.062
same,Expr Log Ratio,TMD8 cells; FTO,-0.134
same,Expr Log Ratio,TMD8 cells; GLIS2,-0.228
same,Expr Log Ratio,TMD8 cells; GNB1,0.033
same,Expr Log Ratio,TMD8 cells; GNB2,-0.086
same,Expr Log Ratio,TMD8 cells; GPI,-0.003
same,Expr Log Ratio,TMD8 cells; GPNMB,0.582
same,Expr Log Ratio,TMD8 cells; GSTP1,-0.086
same,Expr Log Ratio,TMD8 cells; H1-2,-0.09
same,Expr Log Ratio,TMD8 cells; HDAC1,-0.011
same,Expr Log Ratio,TMD8 cells; HDAC8,-0.281
same,Expr Log Ratio,TMD8 cells; HNRNPAB,-0.136
same,Expr Log Ratio,TMD8 cells; HSF2,-0.15
same,Expr Log Ratio,TMD8 cells; HTATIP2,0.03
same,Expr Log Ratio,TMD8 cells; IL1A,0.332
same,Expr Log Ratio,TMD8 cells; ING1,-0.221
same,Expr Log Ratio,TMD8 cells; KDM6B,-0.137
same,Expr Log Ratio,TMD8 cells; LOX,-0.113
same,Expr Log Ratio,TMD8 cells; LOXL2,0.149
same,Expr Log Ratio,TMD8 cells; MAPK8,-0.028
same,Expr Log Ratio,TMD8 cells; MAPK9,0.146
same,Expr Log Ratio,TMD8 cells; MAPKAP1,-0.077
same,Expr Log Ratio,TMD8 cells; MDM4,-0.082
same,Expr Log Ratio,TMD8 cells; MED1,-0.016
same,Expr Log Ratio,TMD8 cells; MESP1,-0.242
same,Expr Log Ratio,TMD8 cells; MESP2,-0.023
same,Expr Log Ratio,TMD8 cells; MFN2,-0.162
same,Expr Log Ratio,TMD8 cells; MGAT3,-0.275
same,Expr Log Ratio,TMD8 cells; MGAT5,0.29
same,Expr Log Ratio,TMD8 cells; MPZ,-0.137
same,Expr Log Ratio,TMD8 cells; MTA3,-0.001
same,Expr Log Ratio,TMD8 cells; NCL,-0.053
same,Expr Log Ratio,TMD8 cells; NCOA2,0.045
same,Expr Log Ratio,TMD8 cells; NDRG2,0.057
same,Expr Log Ratio,TMD8 cells; NFIA,0.254
same,Expr Log Ratio,TMD8 cells; NFYB,0.006
same,Expr Log Ratio,TMD8 cells; NORAD,-0.057
same,Expr Log Ratio,TMD8 cells; NR1H3,0.155
same,Expr Log Ratio,TMD8 cells; OIP5-AS1,0.071
same,Expr Log Ratio,TMD8 cells; PADI2,0.089
same,Expr Log Ratio,TMD8 cells; PCGF2,0.108
same,Expr Log Ratio,TMD8 cells; PDCD4,0.188
same,Expr Log Ratio,TMD8 cells; PIAS3,0.008
same,Expr Log Ratio,TMD8 cells; POR,-0.13
same,Expr Log Ratio,TMD8 cells; PPIA,0.046
same,Expr Log Ratio,TMD8 cells; PTAFR,0.465
same,Expr Log Ratio,TMD8 cells; PTP4A3,-0.295
same,Expr Log Ratio,TMD8 cells; PTPN2,0.048
same,Expr Log Ratio,TMD8 cells; RALA,-0.18
same,Expr Log Ratio,TMD8 cells; REL,-0.144
same,Expr Log Ratio,TMD8 cells; RELA,-0.006
same,Expr Log Ratio,TMD8 cells; RNASEL,0.378
same,Expr Log Ratio,TMD8 cells; RPA1,0.039
same,Expr Log Ratio,TMD8 cells; RPS6KA5,-0.015
same,Expr Log Ratio,TMD8 cells; SCX,0.154
same,Expr Log Ratio,TMD8 cells; SDCBP,0.02
same,Expr Log Ratio,TMD8 cells; SDHB,0.024
same,Expr Log Ratio,TMD8 cells; SP3,-0.093
same,Expr Log Ratio,TMD8 cells; SP100,0.189
same,Expr Log Ratio,TMD8 cells; SPINT1,-0.109
same,Expr Log Ratio,TMD8 cells; ST6GAL1,-0.01
same,Expr Log Ratio,TMD8 cells; STS,0.181
same,Expr Log Ratio,TMD8 cells; TGFBR3,0.172
same,Expr Log Ratio,TMD8 cells; TGS1,0.171
same,expression of AHR target gene CYP1A1,"TMD8 cells; TMD8, 1 μM, 8 h",significantly downregulated
same,number of genes unchanged vs DMSO,"TMD8 cells; TMD8, 1 μM, 8 h",14389 genes
same,number of genes unchanged vs ibrutinib,"TMD8 cells; TMD8, 1 μM, 8 h",14881 genes
same,number of genes reduced vs DMSO,"TMD8 cells; TMD8, 1 μM, 8 h, FDR < 0.01, log2FC < -0.5",274 genes
same,number of genes increased vs DMSO,"TMD8 cells; TMD8, 1 μM, 8 h, FDR < 0.01, log2FC > 0.5",384 genes
same,number of genes increased vs ibrutinib,"TMD8 cells; TMD8, 1 μM, 8 h, p-value <0.01",105 genes
same,number of genes reduced vs ibrutinib,"TMD8 cells; TMD8, 1 μM, 8 h, p-value <0.01",61 genes
same,Expr Log Ratio,TMD8 cells; TNF,-0.16
same,Expr Log Ratio,TMD8 cells; TNFRSF11A,0.052
same,Expr Log Ratio,TMD8 cells; TP53,-0.035
same,Expr Log Ratio,TMD8 cells; YWHAZ,0.016
